According to patent US11596611B2, “Hepatitis B antiviral agents” (ENANTA PHARMACEUTICALS, INC., priority 2017, dated 2023):
Read-outs that look alike come from different tables or passages of the source.

Tested on: HBV
Assay: HepAD38 antiviral assay: reduction of viral product accumulation (virion DNA by qPCR, HBsAg or HBeAg by ELISA)
Format: cell-based, hepatitis B virus
Details: Hepatitis B virus
Method: Methods: HepAD38 cells are maintained as previously reported (Ladner et al, Antimicrob. Agents Chemother. 1997, […], 1715). Briefly, cells are passaged upon attaining confluency in DMEM/F12 media in the presence of 10% FBS, Penn/Strep, 250 μg/mL G418, and 1 ug/ml tetracycline. Novel compounds are screened by first washing cells three times with PBS to remove tetracycline, and plating in 96 well plates at 35,000 cells/well. Compounds dissolved in DMSO are then diluted 1:200 into wells containing cells. Five days after compound addition, material is harvested for analysis. For an extended 8 days analysis, cells are plated and treated as described above, but media and compound are refreshed on d2 and d5 post initial treatment.
On harvest day, virion DNA is obtained by lysing with Sidestep Lysis and Stabilization Buffer and then quantified via quantitative real time PCR. Commercially available ELISA kits are used to quantitate the viral proteins HBsAg (Alpco) or HbeAg (US Biological) by following the manufacturer's recommended protocol after diluting samples to match the linear range of their respective assays.

[1] = 120 h, HepAD38 cells, five days after compound addition, 50% reduction of viral product vs no drug controls, read-out: HepAD38 EC50
[2] = HePAD38, 120 h, read-out: HepAD38 EC50 (μM)

SMILES: O=C1N[C@@H](C(=O)NC[C@]2(O)C3CCC2C[C@@H](S(=O)(=O)c2cc(C(=O)Nc4cc(F)c(F)c(F)c4)ccc2Cl)C3)CO1 [Example 95]
- EC50 [1]: > 0.2 µM

SMILES: COC(=O)NCC(O)C(=O)NC[C@]1(O)C2CCC1C[C@@H](S(=O)(=O)c1cc(C(=O)Nc3cc(F)c(F)c(F)c3)ccc1Cl)C2 (stereo partly drawn) [Example 96]
- EC50 [1]: 0.1 to 0.2 µM

SMILES: O=C1NC(C(=O)NC[C@]2(O)C3CCC2C[C@@H](S(=O)(=O)c2cc(C(=O)Nc4cc(F)c(F)c(F)c4)ccc2Cl)C3)CO1 (stereo partly drawn) [Example 97]
- EC50 [1]: 0.1 to 0.2 µM

SMILES: COCCOC[C@]1(O)C2CCC1C[C@@H](S(=O)(=O)c1cc(C(=O)Nc3cc(F)c(F)c(F)c3)ccc1Cl)C2 [Example 98]
- EC50 [1]: < 0.104 µM

SMILES: COCCOCCOC[C@]1(O)C2CCC1C[C@@H](S(=O)(=O)c1cc(C(=O)Nc3cc(F)c(F)c(F)c3)ccc1Cl)C2 [Example 99]
- EC50 [1]: < 0.104 µM

SMILES: C[C@]1(O)C2CCC1C[C@@H](S(=O)(=O)c1cc(C(=O)Nc3ccc(F)c(F)c3)c(Br)cc1Cl)C2 [Example 100]
- EC50 [1]: < 0.104 µM

SMILES: C[C@]1(O)C2CCC1C[C@@H](S(=O)(=O)c1cc(C(=O)Nc3ccc(F)c(F)c3)c(-c3ccccc3)cc1Cl)C2 [Example 101]
- EC50 [1]: > 0.2 µM

SMILES: C[C@]1(O)C2CCC1C[C@@H](S(=O)(=O)c1cc(C(=O)Nc3ccc(F)c(F)c3)c(-c3cccnc3)cc1Cl)C2 [Example 102]
- EC50 [1]: > 0.2 µM

SMILES: CCCCc1cc(Cl)c(S(=O)(=O)[C@H]2CC3CCC(C2)[C@@]3(C)O)cc1C(=O)Nc1ccc(F)c(F)c1 [Example 103]
- EC50 [1]: < 0.104 µM

SMILES: COc1cc(NC(=O)c2ccc(Cl)c(S(=O)(=O)[C@H]3CC4CCC(C3)[C@@]4(C)O)c2)ccc1F [Example 104]
- EC50 [1]: > 0.2 µM

SMILES: C[C@]1(O)C2CCC1C[C@@H](S(=O)(=O)c1cc(C(=O)Nc3cc(F)cc(F)c3)ccc1Cl)C2 [Example 105]
- EC50 [1]: < 0.104 µM

SMILES: COC(=O)N1C[C@H](O)C[C@H]1C(=O)NCC(O)[C@]1(O)C2CCC1C[C@@H](S(=O)(=O)c1cc(C(=O)Nc3cc(F)c(F)c(F)c3)ccc1Cl)C2 (stereo partly drawn) [Example 107]
- EC50 [1]: > 0.2 µM

SMILES: O=C(C[C@]1(O)C2CCC1C[C@@H](S(=O)(=O)c1cc(C(=O)Nc3cc(F)c(F)c(F)c3)ccc1Cl)C2)NC1COC1 [Example 110]
- EC50 [1]: < 0.104 µM

SMILES: COC[C@@H](C)NC(=O)C[C@]1(O)C2CCC1C[C@@H](S(=O)(=O)c1cc(C(=O)Nc3cc(F)c(F)c(F)c3)ccc1Cl)C2 [Example 115]
- EC50 [1]: < 0.104 µM

SMILES: COC[C@H](C)NC(=O)C[C@]1(O)C2CCC1C[C@@H](S(=O)(=O)c1cc(C(=O)Nc3cc(F)c(F)c(F)c3)ccc1Cl)C2 [Example 118]
- EC50 [1]: < 0.104 µM

SMILES: COC(=O)CNC(=O)C[C@]1(O)C2CCC1C[C@@H](S(=O)(=O)c1cc(C(=O)Nc3cc(F)c(F)c(F)c3)ccc1Cl)C2 [Example 119]
- EC50 [1]: > 0.2 µM

SMILES: O=C(O)CNC(=O)C[C@]1(O)C2CCC1C[C@@H](S(=O)(=O)c1cc(C(=O)Nc3cc(F)c(F)c(F)c3)ccc1Cl)C2 [Example 120]
- EC50 [1]: > 0.2 µM

SMILES: COCC(COC)OC[C@]1(O)C2CCC1C[C@@H](S(=O)(=O)c1cc(C(=O)Nc3cc(F)c(F)c(F)c3)ccc1Cl)C2 [Example 121]
- EC50 [1]: < 0.104 µM

SMILES: COC[C@]1(O)C2CCC1C[C@@H](S(=O)(=O)c1cc(C(=O)Nc3cc(F)c(F)c(F)c3)ccc1Cl)C2 [Example 123]
- EC50 [1]: < 0.104 µM

SMILES: COC[C@]1(O)C2CCC1C[C@H](S(=O)(=O)c1cc(C(=O)Nc3cc(F)c(F)c(F)c3)ccc1Cl)C2 [Example 124]
- EC50 [1]: < 0.104 µM

SMILES: O=C1CC[C@@H](C(=O)NC[C@]2(O)C3CCC2C[C@@H](S(=O)(=O)c2cc(C(=O)Nc4cc(F)c(F)c(F)c4)ccc2Cl)C3)N1 [Example 127]
- EC50 [1]: > 0.2 µM

SMILES: O=C1CC[C@H](C(=O)NC[C@@]2(O)C3CC[C@H]2C[C@H](S(=O)(=O)c2cc(C(=O)Nc4cc(F)c(F)c(F)c4)ccc2Cl)C3)N1 [Example 128]
- EC50 [1]: > 0.2 µM

SMILES: C[C@@]1(O)C2CC[C@H]1C[C@H](S(=O)(=O)c1cc(C(=O)Nc3ccc(F)c(F)c3)c(-c3ccncc3)cc1Cl)C2 [Example 132]
- EC50 [1]: > 0.2 µM

SMILES: C[C@]1(O)C2CCC1C[C@@H](S(=O)(=O)c1cc(C(=O)Nc3ccc(F)c(F)c3)c(-c3ccccn3)cc1Cl)C2 [Example 133]
- EC50 [1]: > 0.2 µM

SMILES: C[C@]1(O)C2CCC1C[C@@H](S(=O)(=O)c1cc(C(=O)Nc3ccc(F)c(O)c3)ccc1Cl)C2 [Example 134]
- EC50 [1]: > 0.2 µM

SMILES: O=C(C[C@]1(O)C2CCC1C[C@@H](S(=O)(=O)c1cc(C(=O)Nc3cc(F)c(F)c(F)c3)ccc1Cl)C2)Nc1nccs1 [Example 138]
- EC50 [1]: < 0.104 µM

SMILES: COC(=O)CCNC(=O)C[C@]1(O)C2CCC1C[C@@H](S(=O)(=O)c1cc(C(=O)Nc3cc(F)c(F)c(F)c3)ccc1Cl)C2 [Example 139]
- EC50 [1]: > 0.2 µM

SMILES: O=C(O)CCNC(=O)C[C@]1(O)C2CCC1C[C@@H](S(=O)(=O)c1cc(C(=O)Nc3cc(F)c(F)c(F)c3)ccc1Cl)C2 [Example 140]
- EC50 [1]: > 0.2 µM

SMILES: COC(=O)N[C@H](C(=O)N1C2CCC1CC(S(=O)(=O)c1cc(C(=O)Nc3cc(F)c(F)c(F)c3)ccc1Cl)C2)C(C)C (stereo partly drawn) [Example 142]
- EC50 [2]: 0.1 to 0.2 µM

SMILES: COC(=O)N1CCC[C@H]1C(=O)N1C2CCC1CC(S(=O)(=O)c1cc(C(=O)Nc3cc(F)c(F)c(F)c3)ccc1Cl)C2 (stereo partly drawn) [Example 143]
- EC50 [1]: > 0.2 µM

SMILES: CN1C2CCC1CC(S(=O)(=O)c1cc(C(=O)Nc3cc(F)c(F)c(F)c3)ccc1Cl)C2 (stereo not drawn) [Example 145]
- EC50 [1]: > 0.2 µM

SMILES: O=C(Nc1cc(F)c(F)c(F)c1)c1ccc(Cl)c(S(=O)(=O)C2CC3CCC(C2)N3C2CCCC2)c1 (stereo not drawn) [Example 146]
- EC50 [1]: > 0.2 µM

SMILES: COC(=O)NCCC(=O)N1C2CCC1CC(S(=O)(=O)c1cc(C(=O)Nc3cc(F)c(F)c(F)c3)ccc1Cl)C2 (stereo not drawn) [Example 147]
- EC50 [1]: < 0.104 µM

SMILES: CC(C)(O)C(O)CNC(=O)[C@@]1(O)C2CC[C@H]1C[C@H](S(=O)(=O)c1cc(C(=O)Nc3cc(F)c(F)c(F)c3)ccc1Cl)C2 (stereo partly drawn) [Example 148]
- EC50 [1]: 0.1 to 0.2 µM

SMILES: O=C(Nc1cc(F)c(F)c(F)c1)c1ccc(Cl)c(S(=O)(=O)[C@@H]2CC3CC[C@@H](C2)N3C[C@H](O)CO)c1 [Example 153]
- EC50 [2]: 0.1 to 0.2 µM

SMILES: COC(=O)N[C@@H](Cc1ccccc1)C(=O)N1C2CCC1CC(S(=O)(=O)c1cc(C(=O)Nc3cc(F)c(F)c(F)c3)ccc1Cl)C2 (stereo partly drawn) [Example 154]
- EC50 [1]: > 0.2 µM

SMILES: NS(=O)(=O)NC[C@]1(O)C2CCC1C[C@@H](S(=O)(=O)c1cc(C(=O)Nc3cc(F)c(F)c(F)c3)ccc1Cl)C2 [Example 156]
- EC50 [1]: < 0.104 µM

SMILES: C[C@]1(O)C2CCC1C[C@@H](S(=O)(=O)c1cc(C(=O)Nc3ccc(F)c(F)c3)c(-c3nccs3)cc1Cl)C2 [Example 157]
- EC50 [1]: < 0.104 µM

SMILES: O=C(Nc1ccc(F)c(F)c1)c1ccc(Cl)c(S(=O)(=O)[C@H]2CC3CCC(C2)[C@]3(O)CNC(=O)C2CC2)c1 [Example 158]
- EC50 [1]: < 0.104 µM

SMILES: COC(=O)N[C@@H](C)C(=O)NC[C@]1(O)C2CCC1C[C@@H](S(=O)(=O)c1cc(C(=O)Nc3ccc(F)c(F)c3)ccc1Cl)C2 [Example 159]
- EC50 [1]: < 0.104 µM

SMILES: C[C@@]1(O)C2CC[C@H]1C[C@H](S(=O)(=O)c1cc(C(=O)Nc3ccc(F)c(F)c3)c(Cc3ccccc3)cc1Cl)C2 [Example 160]
- EC50 [1]: > 0.2 µM

SMILES: C[C@]1(O)C2CCC1C[C@@H](S(=O)(=O)c1cc(C(=O)Nc3ccc(F)c(CO)c3)ccc1Cl)C2 [Example 166]
- EC50 [1]: < 0.104 µM

SMILES: C[C@H](O)CC(=O)NC[C@]1(O)C2CCC1C[C@@H](S(=O)(=O)c1cc(C(=O)Nc3ccc(F)c(F)c3)ccc1Cl)C2 [Example 169]
- EC50 [1]: 0.1 to 0.2 µM

SMILES: CC(C)(O)CC(=O)NC[C@]1(O)C2CCC1C[C@@H](S(=O)(=O)c1cc(C(=O)Nc3ccc(F)c(F)c3)ccc1Cl)C2 [Example 170]
- EC50 [1]: < 0.104 µM

SMILES: O=C(Nc1ccc(F)c(F)c1)c1ccc(Cl)c(S(=O)(=O)[C@H]2CC3CCC(C2)[C@]3(O)CNC(=O)C2CC(O)C2)c1 (stereo partly drawn) [Example 171]
- EC50 [1]: > 0.2 µM

SMILES: O=C(C[C@]1(O)C2CCC1C[C@@H](S(=O)(=O)c1cc(C(=O)Nc3ccc(F)c(F)c3)ccc1Cl)C2)NCCO [Example 184]
- EC50 [1]: < 0.104 µM

SMILES: COCCNC(=O)C[C@]1(O)C2CCC1C[C@@H](S(=O)(=O)c1cc(C(=O)Nc3ccc(F)c(F)c3)ccc1Cl)C2 [Example 190]
- EC50 [1]: < 0.104 µM

SMILES: O=C(Nc1ccc(F)c(F)c1)c1ccc(Cl)c(S(=O)(=O)CC2CCC(O)(CO)CC2)c1 (stereo not drawn) [Example 194]
- EC50 [1]: 0.1 to 0.2 µM

SMILES: CC(C)(O)CNC(=O)C[C@]1(O)CC[C@@H](CS(=O)(=O)c2cc(C(=O)Nc3ccc(F)c(F)c3)ccc2Cl)CC1 [Example 195]
- EC50 [1]: > 0.2 µM

SMILES: CC(C)(O)CNC(=O)C[C@]1(O)CC[C@H](CS(=O)(=O)c2cc(C(=O)Nc3ccc(F)c(F)c3)ccc2Cl)CC1 [Example 196]
- EC50 [1]: > 0.2 µM

SMILES: C[C@@H](O)COCC1(O)CCC(CS(=O)(=O)c2cc(C(=O)Nc3ccc(F)c(F)c3)ccc2Cl)CC1 (stereo partly drawn) [Example 197]
- EC50 [1]: > 0.2 µM

SMILES: C[C@H](O)COCC1(O)CCC(CS(=O)(=O)c2cc(C(=O)Nc3ccc(F)c(F)c3)ccc2Cl)CC1 (stereo partly drawn) [Example 198]
- EC50 [1]: 0.1 to 0.2 µM

SMILES: O=C(Nc1ccc(F)c(F)c1)c1ccc(Cl)c(S(=O)(=O)CC2CCC(O)(C(O)CO)CC2)c1 (stereo not drawn) [Example 199]
- EC50 [1]: > 0.2 µM

SMILES: O=C(Nc1ccc(F)c(F)c1)c1ccc(Cl)c(S(=O)(=O)CC2CC(O)(CO)C2)c1 (stereo not drawn) [Example 200]
- EC50 [1]: > 0.2 µM

SMILES: O=C(Nc1ccc(F)c(F)c1)c1ccc(Cl)c(S(=O)(=O)C2CO[C@@H]3C(O)CO[C@H]23)c1 (stereo partly drawn) [Example 201]
- EC50 [1]: > 0.2 µM

SMILES: COC(=O)C1([C@]2(O)C3CCC2C[C@@H](S(=O)(=O)c2cc(C(=O)Nc4cc(F)c(F)c(F)c4)ccc2Cl)C3)COC(C)(C)O1 (stereo partly drawn) [Example 202]
- EC50 [1]: < 0.104 µM

SMILES: O=C[C@]1(O)C2CCC1C[C@@H](S(=O)(=O)c1cc(C(=O)Nc3ccc(F)c(F)c3)ccc1Cl)C2 [Example 203]
- EC50 [1]: < 0.104 µM
